# Assay results reported in patent US12527818B2, “Platinum-based chemotherapy, mast binding agents, glucocorticoid receptor (GR) binding agents, and/or HSP90 binding agents for uses in treating cancer” (Emory University, priority 2019, dated 2026).
# “Also recorded” adds a separate entry of the source. Peptide text beside a SMILES is read from it. * marks the point of attachment. Cbz = O=C(OCc1ccccc1)*
# Assays:
# [1] = tested on: KB-3-1cisR xenograft tumors; assay: Xenograft mice bearing KB-3-1cisR tumors treated with 17-AAG and cisplatin; format: in vivo
# Experimental: Mice were treated with cisplatin (5 mg/kg) and 17-AAG (50 mg/kg) from 5 days after xenograft.
# (§1) These in vitro observations were confirmed in vivo.
# (§2) Experiments were performed to determine whether ubiquitination of MAST1 at K317 and K545 upon hsp90 inhibition is involved in MAST1-mediated cisplatin-resistant cancer cell proliferation and tumor growth. […] The effect of MAST1 WT or 2KR was monitored in cells with MAST1 knockdown. […] This finding was further validated in vivo.
# [2] = target: hsp90B (Homo sapiens, UniProt P08238)
# hsp90B, sequence (P08238 whole entry): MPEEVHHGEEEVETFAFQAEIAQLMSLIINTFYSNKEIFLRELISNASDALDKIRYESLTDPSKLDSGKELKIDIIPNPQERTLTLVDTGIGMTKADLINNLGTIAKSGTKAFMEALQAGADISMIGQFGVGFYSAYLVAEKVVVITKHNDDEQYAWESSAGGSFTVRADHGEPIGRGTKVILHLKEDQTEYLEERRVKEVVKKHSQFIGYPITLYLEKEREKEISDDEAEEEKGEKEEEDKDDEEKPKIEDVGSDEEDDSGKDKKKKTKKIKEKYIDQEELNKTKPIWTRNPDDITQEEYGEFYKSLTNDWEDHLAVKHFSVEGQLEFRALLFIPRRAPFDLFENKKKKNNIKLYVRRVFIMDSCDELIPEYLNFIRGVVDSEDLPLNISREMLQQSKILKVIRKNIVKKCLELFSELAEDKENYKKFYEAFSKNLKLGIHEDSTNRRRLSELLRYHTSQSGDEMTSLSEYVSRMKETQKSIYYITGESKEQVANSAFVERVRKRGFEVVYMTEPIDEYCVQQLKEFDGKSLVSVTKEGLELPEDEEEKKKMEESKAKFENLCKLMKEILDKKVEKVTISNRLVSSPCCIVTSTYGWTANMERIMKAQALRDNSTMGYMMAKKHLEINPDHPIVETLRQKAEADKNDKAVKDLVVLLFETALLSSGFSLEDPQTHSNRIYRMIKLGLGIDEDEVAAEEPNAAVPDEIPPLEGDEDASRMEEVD
# [3] = tested on: MAST1; assay: MAST1 protein level in cancer cells upon 17-AAG treatment; format: cell-based, human
# Experimental: (§3) Proteins that interact with MAST1 in cells were investigated through 2-dimensional (2D) gel electrophoresis-based proteomic profiling. GST or GST-fused MAST1 was pulled down from human 293T cells. The protein captured by GST-MAST1 but not by GST alone was excised from the 2D gel. Through mass spectrometry-based (MS-based) proteomic analysis, hsp90B was identified as a potential binding partner of MAST1. […] Experiments were performed to determine whether the interaction is limited to the hsp90B isoform by comparing the interaction between MAST1 and hsp90B or hsp90A. Hsp90A, another isoform of hsp90, also binds to MAST1 in cisplatin-resistant cancer cells. Although hsp90A binds to MAST1 in cisplatin-resistant cancer cells, the interaction was weaker compared with hsp90B. […] Experiments were performed to determine whether treatment with 17-AAG, a selective inhibitor of hsp90, alters MAST1 protein levels in cells.
# Through a MS-based proteomic analysis, it was identified that MAST1 is specifically ubiquitinated at lysine residues K317 and K545 upon hsp90 inhibition. To investigate whether these 2 residues are the main ubiquitination sites of MAST1 that mediate proteasomal degradation upon hsp90 inhibition, the lysine-to-arginine mutant forms of MAST1, K317R, K545R, and the double KR mutant K317R/K545R (2KR) were generated.
# as §2
# [4] = tested on: AKT or cRaf; assay: Protein levels of other hsp90 client proteins upon 17-AAG treatment; format: cell-based, human; conditions: same doses of 17-AAG as diminish MAST1
# Experimental: as §3
# (§4) The ubiquitination status of MAST1 in the presence and absence of hsp90 was assessed. […] This was further confirmed in cisplatin-resistant cancer cells.
# [5] = tested on: MEK1; assay: MEK1 activity in cisplatin-resistant cells upon 17-AAG treatment; format: cell-based, human; conditions: MAST1 WT
# Experimental: as §2
# [6] = tested on: MAST1 mRNA; assay: MAST1 mRNA expression upon 17-AAG treatment; format: cell-based, human
# [7] = tested on: cisplatin-resistant cancer cells; assay: Cisplatin response and cell viability of cisplatin-resistant cancer cells with 17-AAG; format: cell-based, human
# Experimental: as §1, §2
# [8] = target: hsp90A (Homo sapiens, UniProt P07900)
# [9] = tested on: MAST1; assay: MAST1 ubiquitination and degradation with proteasome inhibitor; format: cell-based, human
# Experimental: as §4
# [10] = tested on: 96 cellular TFs; assay: Transcription Factor Activation Profiling Array; format: cell-based, human; conditions: cisplatin treated vs nontreated KB-3-1 cells
# Experimental: (§5) The Transcription Factor Activation Profiling Array detects activities of 96 cellular TFs, including HIF1, p53, and NF-kB, which are essential in regulating cellular gene expression. Among the 96 TFs, 6 were activated more than 1.8-fold when cells were treated with cisplatin, including GR/[…] (PR), NFAT, ATF2, CAR, and CBF. To investigate whether any of these TFs activate the MAST1 promoter, these 6 TFs were knocked down in KB-3-1 cells and a MAST1 promoter reporter activity assay was performed in the presence of cisplatin. Knockdown of GR but not other TFs attenuated MAST1 promoter activity. In addition, modulation of GR affected MAST1 promoter activity in the presence of cisplatin in cancer cells. Target downregulation or overexpression of GR abolished or enhanced MAST1 promoter activity in a cisplatin dose-dependent manner in KB-3-1 cells. In line with the changes seen in MAST1 mRNA, MAST1 protein level correlated with GR level in cancer cells (FIG. 3D).
# [11] = tested on: GR; assay: GR intracellular location by immunofluorescence staining; format: cell-based, human; conditions: KB-3-1 cancer cell line
# Source text: To explore the molecular mechanism by which the transcription factor activity of GR is enhanced by cisplatin treatment, the intracellular location of GR in cisplatin-treated cells was investigated. GR resides predominantly in the cytoplasm as part of a heterooligomeric complex of HSP 40, 70, and 90 and other proteins. Binding to its agonist ligand changes the conformation of GR, which dissociates from the HSPs and possibly other protein factors, and translocates into the nucleus. The nuclear translocated GR is considered to be activated GR. Thus, experiment were performed to determine whether cisplatin treatment changes the cellular location of GR from the cytosol to the nucleus in cancer cells. […] This observation was confirmed in vivo in xenograft mice. […] Furthermore, the translocation of GR was found in paired primary HNSCC patient tumors. GR was located mainly in the cytosol in tumors collected from patients before cisplatin or carboplatin therapy, whereas the GR was predominantly stained in the nucleus in tumors collected from patients after the therapy. These experiments indicate that cisplatin treatment activates GR by translocating it to the nucleus in cancer cells.
# [12] = tested on: MAST1; assay: MAST1 induction by cisplatin in cancer cell lines; format: cell-based, human; conditions: KB-3-1, A549, and A2780 cell lines
# Experimental: (§6) Experiments were performed to determine whether MAST1 is induced by cisplatin treatment. Cell line-based studies indicate that MAST1 is increased upon cisplatin treatment in three cancer cell lines, KB-3-1, A549, and A2780. To validate this observation in vivo, cisplatin-resistant tumors were established by treating KB-3-1 bearing mice with sub-effective doses of cisplatin. The MAST1 gene was induced in xenografted tumors after cisplatin administration in mice. […] Cisplatin-resistant refers to patients with tumor recurrence within two years of cisplatin or carboplatin-based chemotherapy.
# [13] = tested on: KB-3-1 xenografted tumors; assay: Xenograft mice bearing KB-3-1 tumors treated with cisplatin; format: in vivo
# Experimental: as §6
# To explore the molecular mechanism by which the transcription factor activity of GR is enhanced by cisplatin treatment, the intracellular location of GR in cisplatin-treated cells was investigated. GR resides predominantly in the cytoplasm as part of a heterooligomeric complex of HSP 40, 70, and 90 and other proteins. Binding to its agonist ligand changes the conformation of GR, which dissociates from the HSPs and possibly other protein factors, and translocates into the nucleus. The nuclear translocated GR is considered to be activated GR. Thus, experiment were performed to determine whether cisplatin treatment changes the cellular location of GR from the cytosol to the nucleus in cancer cells. […] This observation was confirmed in vivo in xenograft mice. […]
# [14] = tested on: MAST1 promoter; assay: MAST1 promoter reporter activity assay; format: cell-based, human; conditions: pMAST1-luc reporter
# Experimental: as §5
# GR binds to the glucocorticoid response element (GRE) on DNA within the promoter region and regulates genes. A GRE was identified within the MAST1 promoter sequence at −44 to −58. […]
# [15] = tested on: GR, MAST1; assay: Dexamethasone effect on GR activity, MAST1 expression and cisplatin-resistant tumor growth; conditions: treatment with dexamethasone
# [16] = tested on: ovarian cancer and head and neck cancer PDX; assay: Tumor volume in PDX mice treated with cisplatin, dexamethasone and lestaurtinib; format: in vivo; conditions: 5 mg/kg cisplatin, 0.1 mg/kg dexamethasone twice/week, 20 mg/kg lestaurtinib daily
# Experimental: Tumor volumes were measured by caliper.
# Therefore, we performed pilot experiments in vitro and in vivo to examine the concept.
# [17] = tested on: KB-3-1 cells; assay: CellTiter-Glo Luminescent Cell Viability assay, GR antagonist or agonist with cisplatin; format: cell-based, human
# Experimental: (§7) Loss of GR sensitizes cells to cisplatin. GR was inhibited by shRNA (top) or by antagonist (bottom) in the presence or absence of cisplatin. Cell viability and MEK activity was measured by CellTiter-Glo™ Luminescent Cell Viability assay and p-MEK1 S217/S221 blot, respectively. Cisplatin: 1 μg/ml, Mifepristone: 10 μM.
# (§8) GR was enhanced by overexpression (top) or agonist (bottom) and cell viability and MEK1 activity was measured, cisplatin: 3 μg/ml, dexamethasone: 0.5 μM.
# (§9) To investigate whether GR contributes to cisplatin resistance in cancer cells, GR was genetically or pharmacologically modulated and changes in cisplatin-resistant cancer cell proliferation as well as the activity of MEK1, which is the predominant substrate of MAST1, was monitored. […] Exogenous overexpression of myc tagged MAST1 restored the attenuated cisplatin-resistant cell growth and MEK1 activity in KB-3-1 cells with GR inhibition either by GR shRNA or GR antagonist mifepristone (FIG. 2A). […] In contrast, reduction of MAST1 by shRNA abolished the elevated cisplatin resistant cancer cell proliferation and MEK1 activity in KB-3-1 cells with activated GR either by flag-GR overexpression or GR agonist dexamethasone (FIG. 2C). Knockdown of MAST1 dramatically attenuated cisplatin resistant tumor growth in xenograft mice bearing flag-GR stably overexpressed KB-3-1 cells (FIG. 2D).
# [18] = tested on: MEK1; assay: MEK1 activity by p-MEK1 S217/S221 blot, GR antagonist or agonist with cisplatin; format: cell-based, human; conditions: KB-3-1 cells
# Experimental: as §7, §8, §9
# [19] = cisplatin 3 μg/ml, dexamethasone 0.5 μM
# [20] = cisplatin 1 μg/ml, mifepristone 10 μM
structure (smiles),measurement,setting,value
"C=CCNC1=C2CC(C)CC(OC)C(O)C(C)C=C(C)C(OC(N)=O)C(OC)C=CC=C(C)C(=O)NC(=CC1=O)C2=O (centres unmarked) [17-AAG, 19-(allylamino)-13-hydroxy-8,14-dimethoxy-4,10,12,16-tetramethyl-3,20,22-trioxo-2-azabicyclo[16.3.1]docosa-1(21),4,6,10,18-pentaen-9-yl carbamate]","tumor growth, MAST1 2KR xenograft tumors","[1]; KB-3-1cisR MAST1 2KR, cisplatin (5 mg/kg) and 17-AAG (50 mg/kg)",resistant to these effects of 17-AAG treatment
same,"tumor growth, MAST1 WT xenograft tumors","[1]; KB-3-1cisR MAST1 WT, cisplatin (5 mg/kg) and 17-AAG (50 mg/kg)",attenuated tumor growth upon cisplatin exposure
same,MAST1 protein level in xenograft tumors,"[1]; xenograft mice, with cisplatin",decreased
same,xenograft tumor response to cisplatin,"[1]; xenograft mice, with cisplatin",sensitized xenograft tumors to cisplatin
same,binding to hsp90B (SPR),[2],binds to both hsp90A and hsp90B
same,2KR MAST1 protein,[3]; MAST1 K317R/K545R (2KR),remained intact
same,wild-type (WT) MAST1 protein,[3]; MAST1 WT,degraded upon 17-AAG treatment in a dose-dependent manner
same,MAST1 protein levels,[3]; cancer cells,diminished MAST1 protein levels in a dose-dependent manner; also recorded: decreased the level of MAST1
same,protein levels of hsp90 client proteins AKT or cRaf,[4],insufficient to decrease
same,activity of the downstream substrate MEK1,[5],attenuated activity of the downstream substrate MEK1
same,MAST1 mRNA expression levels,[6],remained unchanged
same,"cell viability and cisplatin resistance, cells expressing MAST1 2KR","[7]; MAST1 2KR, in the presence of cisplatin",no significant decrease in cell viability and cisplatin resistance
same,"cell viability and cisplatin resistance, cells expressing MAST1 WT","[7]; MAST1 WT, in the presence of cisplatin",sensitive to 17-AAG treatment
same,cisplatin resistance of cisplatin-resistant cancer cells,[7]; with cisplatin,significantly sensitized cisplatin-resistant cancer cells to cisplatin
same,binding to hsp90A (SPR),[8],binds to both hsp90A and hsp90B
CC(C)C[C@@H](C=O)NC(=O)[C@H](CC(C)C)NC(=O)[C@H](CC(C)C)NC(=O)OCc1ccccc1 [MG-132] (Cbz-Leu-Leu-Leu-aldehyde),17-AAG-mediated MAST1 degradation,[9]; 293T cells,prevented 17-AAG-mediated MAST1 degradation
same,MAST1 ubiquitination,[9]; proteasome inhibitor treatment,led to MAST1 ubiquitination
N.N.[Cl][Pt][Cl] [cisplatin],"transcription factor activation (6 of 96 TFs incl. GR/PR, NFAT, ATF2, CAR, CBF)",[10],more than 1.8 fold
same,GR cellular location,[11],translocated from the cytosol to the nucleus
same,MAST1 level upon cisplatin treatment,[12],increased
same,GR location in xenograft tumors,[13]; administration of cisplatin,nuclear translocation of GR
same,MAST1 gene in xenografted tumors,[13]; after cisplatin administration in mice,induced
same,WT MAST1 promoter activity,[14],induced WT MAST1 promoter activity
"CC1CC2C3CCC4=CC(=O)C=CC4(C)C3(F)C(O)CC2(C)C1(O)C(=O)CO (centres unmarked) [dexamethasone, 9-fluoro-11,17-dihydroxy-17-(2-hydroxyacetyl)-10,13,16-trimethyl-6,7,8,9,10,11,12,13,14,15,16,17-dodecahydro-3H-cyclopenta [a]phenanthren-3-one]","GR activity, MAST1 expression, cisplatin-resistant tumor growth",[15],"enhanced GR activity, MAST1 expression, and cisplatin-resistant tumor growth"
same,tumor growth (tumor volume),[16],abolished the cisplatin effect
same,cisplatin response (cell viability),[17]; [19],conferred cisplatin resistance to cancer cells
same,MEK1 activity,[18]; [19],reactivation of MEK1
"CC#CC1(O)CCC2C3CCC4=CC(=O)CCC4=C3C(c3ccc(N(C)C)cc3)CC21C (centres unmarked) [mifepristone, 11-(4-(dimethylamino)phenyl)-17-hydroxy-13-methyl-17-(prop-1-yn-1-yl)-1,2,6,7,8,11,12,13,14,15, 16,17-dodecahydro-3H-cyclopenta[a]phenanthren-3-one]",cisplatin response (cell viability),[17]; [20],sensitized cancer cells to cisplatin treatment
same,MEK1 activity (MEK1 phosphorylation at S217/S221),[18]; [20],attenuated MEK1 activity
